{"source": "patent US20040043498A1", "about": "“Reagent for determining singlet oxygen” (priority 2003, published 2004)", "assay": "Light stability of DMAX-EP (photobleaching under continuous excitation light)", "format": "physicochemical", "details": "0.1 M phosphate buffer pH 7.4, 0.1% DMSO, 37° C.", "procedure": "5.0 μM aqueous solutions of DMAX-EP (endoperoxide of Compound 11 in the above scheme) and DPAX-1-EP (endoperoxide of Compound 13 described in International Patent Publication WO99/51586, Example 1) [0.1 M phosphate buffer (pH 7.4) containing 0.1% DMSO as a cosolvent] were each placed in a fluorescent cell and exposed to an excitation light of 491 nm at 37° C. with stirring, and fluorescence was measured at 620 nm by using a fluorometer while the solution was continuously exposed to the excitation light."}
{"substance": "DMAX-EP", "values": [{"measurement": "Photobleaching relative to DPAX-1-EP", "setting": "5.0 μM aqueous solution, excitation 491 nm, fluorescence at 620 nm", "value": 5.4, "unit": "times slower"}, {"measurement": "Light stability", "setting": "5.0 μM, continuous 491 nm excitation", "value": "excellent light stability"}]}
